Results reported in publication PMC8677766 (Nature Communications, 2021).

Molecular target: T1, hRpn13 (Homo sapiens, UniProt Q16186)
T1 construct: gene ADRM1; hRpn13 Pru (1–150)
Test: ITC; NMR structure; 2D NMR; LC-MS adduct; tryptophan quenching
Type: binding

T1 sequence (Q16186 1-150): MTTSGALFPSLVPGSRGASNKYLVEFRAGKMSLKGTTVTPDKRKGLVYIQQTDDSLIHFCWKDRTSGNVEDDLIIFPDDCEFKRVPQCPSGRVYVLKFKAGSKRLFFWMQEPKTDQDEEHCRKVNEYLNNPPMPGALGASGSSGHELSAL

Question: How did the Kd turn out when Cc1ccc(C(=O)Nc2cccc(/C=C(\C#N)C(=O)Nc3ccccc3C(=O)O)c2)cc1 [XL5] was run?
Answer: 1.48 ± 0.52 µM
